Data taken from paper PMC8113459, “Selective inhibition of cullin 3 neddylation through covalent targeting DCN1 protects mice from acetaminophen-induced liver toxicity” (Nature Communications, 2021).
Where “and” joins values, the source holds several entries; their conditions need not be identical. Equal values may be shown once.

Columns and labels:
mice = assay: 14-day toxicity study in mice; assay type: in vivo, mouse; details: for AdrenalGlands / Brain / Epidimydes (paired) / Heart / KidneyL / KidneyR / Liver / Spleen / Testes (paired) / Thymus: organ weight of individual male mouse, vehicle 20% PCP, in g (unit assumed); for AdrenalGlands / Brain / Epidimydes (paired) / Heart / KidneyL / KidneyR / Liver / Spleen / Testes (paired) / Thymus / RelGonads / Relative KidneyL / RelativeHeart / RelativeKidneyR / RelativeLiver / RelativeSpleen / RelativeThymus / RelAdrenGl / RelBrain / RelEpid: 50 mg/kg, 14 day; for RelGonads / Relative KidneyL / RelativeHeart / RelativeKidneyR / RelativeLiver / RelativeSpleen / RelativeThymus / RelAdrenGl / RelBrain / RelEpid: organ weight relative to whole animal, individual male mouse; for RelAdrenGl / RelBrain / RelEpid: in % (unit assumed)
Description: We evaluated DI-1859 for its potential toxicity in immunocompetent mice with daily, 50 mg/kg, intraperitoneal (IP) dosing for 14 consecutive days (Supplementary Table 3).
Supplementary Table 3. Overview Toxicity Study design DI-1859 study.
Group # # of Mice Drug Vol./ Test Article Treatment Diluent
(male/female) Route mouse dose Schedule

HO-1 protein = assay: Western blot, HO-1 protein in THLE2 cells; assay type: cell-based, human; details: THLE2, Fig. 6b
Description: Western blotting was performed as described previously. Treated cells were lysed by RIPA buffer supplemented with protease inhibitor. The expression level of indicated proteins was examined by immunoblotting analysis and GAPDH was used as the loading control. Antibodies were purchased commercially: cullin 1 (sc-17775, 1:500 dilution) and cullin 2 (sc-166506, 1:500 dilution) from Santa Cruz Biotech (Santa Cruz, CA); cullin 4A (PA5-14542, 1:1000 dilution), cullin 4B (PA5-50647, 1:1000 dilution), and DCN3 (DCUN1D3, PA5-44000, 1:1000 dilution) from Thermo Fisher Scientific (Wayne, MI); cullin 3 (2759, 1:1000), NRF2 (12721, 1:1000 dilution), HO-1 (70081, 1:1000 dilution), and Bim (2819, 1:1000 dilution) from Cell Signaling Technology (Boston, MA); DCN1 (GWB-E3D700, 1:1000 dilution) from GenWay Biotech (San Diego, CA); and cullin 5 (A302-173A, 1:500 dilution) from Bethyl Labs (Montgomery, TX). Results are representative of two independent experiments.

[1] = mice, 50 mg/kg IP qD(1-14), mean ± s.d., n=5
[2] = serum, mice, 50 mg/kg IP qD(1-14), mean ± s.d., n=5

Question: `C=C(CN(C)C)C(=O)NC[C@@H](NC(=O)[C@H](Cc1nc2ccc(C(C)C)cc2s1)NC(=O)CC)C1CCCCC1` [DI-1859] was tested. Which RBC (mice; [1]) did it give?
Answer: Its RBC is 8.36 ± 0.67 10e6/ul.

Question: And the RDW (mice; [1])?
Answer: The RDW was 17.12 ± 0.43%.

Question: What about the “Relative organ weight, Adrenal glands (paired)” value (mice; [1]) of the same compound?
Answer: The value was 0.02 ± 0.01 % of body weight.

Question: And the “Relative organ weight, Brain” value (mice; [1])?
Answer: The value was 1.76 ± 0.07 % of body weight.

Question: What about the “Relative organ weight, Epididymis (paired)” value (mice; [1]) of the same compound?
Answer: Its value is 0.35 ± 0.05 % of body weight.

Question: What about the “Relative organ weight, Heart” value (mice; [1]) of the same compound?
Answer: The value was 0.45 ± 0.02 % of body weight.

Question: And the “Relative organ weight, L kidney” value (mice; [1])?
Answer: Its value is 0.71 ± 0.05 % of body weight.

Question: And the “Relative organ weight, Liver” value (mice; [1])?
Answer: The value was 6.19 ± 0.19 % of body weight.

Question: What about the “Relative organ weight, R kidney” value (mice; [1]) of the same compound?
Answer: Its value is 0.78 ± 0.04 % of body weight.

Question: And the “Relative organ weight, Spleen” value (mice; [1])?
Answer: Its value is 0.28 ± 0.04 % of body weight.

Question: What about the “Relative organ weight, Testes (paired)” value (mice; [1]) of the same compound?
Answer: Its value is 0.86 ± 0.09 % of body weight.

Question: And the “Relative organ weight, Thymus” value (mice; [1])?
Answer: Its value is 0.16 ± 0.11 % of body weight.

Question: And the WBC (mice; [1])?
Answer: Its WBC is 6.868 ± 3.993 10e3/ul.

Question: And the “Microscopic finding, Epididymis: Sperm granuloma” value (mice; mice, 50 mg/kg IP, 14 days)?
Answer: Its value is 0/10.

Question: What about the “Microscopic finding, Liver: Necrosis, random” value (mice; mice, 50 mg/kg IP, 14 days) of the same compound?
Answer: Its value is 0/5.

Question: And the “Microscopic findings, Adrenal Glands” value (mice; mice, 50 mg/kg IP, 14 days)?
Answer: Its value is 0/8.

Question: What about the “Microscopic findings, Cecum” value (mice; mice, 50 mg/kg IP, 14 days) of the same compound?
Answer: The value was 0/5.

Question: What about the “Microscopic findings, Colon” value (mice; mice, 50 mg/kg IP, 14 days) of the same compound?
Answer: Its value is 0/5.

Question: And the “Microscopic findings, Heart” value (mice; mice, 50 mg/kg IP, 14 days)?
Answer: Its value is 0/5.

Question: What about the “Microscopic findings, Kidneys” value (mice; mice, 50 mg/kg IP, 14 days) of the same compound?
Answer: Its value is 0/10.

Question: What about the “Microscopic findings, Lung” value (mice; mice, 50 mg/kg IP, 14 days) of the same compound?
Answer: Its value is 0/5.

Question: What about the “Microscopic findings, Mesenteric lymph node” value (mice; mice, 50 mg/kg IP, 14 days) of the same compound?
Answer: The value was 0/5.

Question: And the “Microscopic findings, Pancreas” value (mice; mice, 50 mg/kg IP, 14 days)?
Answer: Its value is 0/5.

Question: And the “Microscopic findings, Small intestine” value (mice; mice, 50 mg/kg IP, 14 days)?
Answer: The value was 0/5.

Question: And the “Microscopic findings, Spleen” value (mice; mice, 50 mg/kg IP, 14 days)?
Answer: The value was 0/5.

Question: And the “Microscopic findings, Sternal bone marrow” value (mice; mice, 50 mg/kg IP, 14 days)?
Answer: Its value is 0/5.

Question: And the “Microscopic findings, Stomach” value (mice; mice, 50 mg/kg IP, 14 days)?
Answer: The value was 0/5.

Question: And the “Microscopic findings, Thymus” value (mice; mice, 50 mg/kg IP, 14 days)?
Answer: Its value is 0/5.

Question: And the “Microscopic findings, Urinary bladder” value (mice; mice, 50 mg/kg IP, 14 days)?
Answer: The value was 0/5.

Question: What about the AdrenalGlands (mice) of the same compound?
Answer: Its AdrenalGlands is 0.007.

Question: What about the Brain (mice) of the same compound?
Answer: Its Brain is 0.448.

Question: What about the “Epidimydes (paired)” value (mice) of the same compound?
Answer: Its value is 0.106.

Question: And the Heart (mice)?
Answer: Its Heart is 0.104.

Question: What about the KidneyL (mice) of the same compound?
Answer: Its KidneyL is 0.187.

Question: And the KidneyR (mice)?
Answer: Its KidneyR is 0.192.

Question: What about the Liver (mice) of the same compound?
Answer: Its Liver is 1.500.

Question: And the Spleen (mice)?
Answer: Its Spleen is 0.075.

Question: And the “Testes (paired)” value (mice)?
Answer: The value was 0.230.

Question: And the Thymus (mice)?
Answer: Its Thymus is 0.025.

Question: And the AdrenalGlands (mice; listed as DI-1589, 50 mg/kg)?
Answer: Its AdrenalGlands is 0.005 and 0.010.

Question: And the Brain (mice; listed as DI-1589, 50 mg/kg)?
Answer: Its Brain is 0.465 and 0.450 and 0.445 and 0.462.

Question: What about the “Epidimydes (paired)” value (mice; listed as DI-1589, 50 mg/kg) of the same compound?
Answer: The value was 0.091 and 0.076 and 0.086 and 0.084.

Question: What about the Heart (mice; listed as DI-1589, 50 mg/kg) of the same compound?
Answer: The Heart was 0.120 and 0.111 and 0.127 and 0.122.

Question: And the KidneyL (mice; listed as DI-1589, 50 mg/kg)?
Answer: Its KidneyL is 0.188 and 0.165 and 0.173 and 0.199.

Question: What about the KidneyR (mice; listed as DI-1589, 50 mg/kg) of the same compound?
Answer: Its KidneyR is 0.201 and 0.208 and 0.193 and 0.207.

Question: What about the Liver (mice; listed as DI-1589, 50 mg/kg) of the same compound?
Answer: The Liver was 1.540 and 1.722 and 1.680.

Question: What about the Spleen (mice; listed as DI-1589, 50 mg/kg) of the same compound?
Answer: Its Spleen is 0.063 and 0.074 and 0.062 and 0.093.

Question: And the “Testes (paired)” value (mice; listed as DI-1589, 50 mg/kg)?
Answer: Its value is 0.224 and 0.227 and 0.237 and 0.193.

Question: What about the Thymus (mice; listed as DI-1589, 50 mg/kg) of the same compound?
Answer: The Thymus was 0.088 and 0.032 and 0.029 and 0.028.

Question: What about the RelGonads (mice) of the same compound?
Answer: The RelGonads was 0.935.

Question: And the “Relative KidneyL” value (mice)?
Answer: The value was 0.760.

Question: What about the RelativeHeart (mice) of the same compound?
Answer: The RelativeHeart was 0.423.

Question: What about the RelativeKidneyR (mice) of the same compound?
Answer: Its RelativeKidneyR is 0.780.

Question: What about the RelativeLiver (mice) of the same compound?
Answer: The RelativeLiver was 6.098.

Question: What about the RelativeSpleen (mice) of the same compound?
Answer: The RelativeSpleen was 0.305.

Question: And the RelativeThymus (mice)?
Answer: Its RelativeThymus is 0.102.

Question: And the RelAdrenGl (mice)?
Answer: The RelAdrenGl was 0.028.

Question: And the RelBrain (mice)?
Answer: Its RelBrain is 1.821.

Question: What about the RelEpid (mice) of the same compound?
Answer: The RelEpid was 0.431.

Question: What about the RelGonads (mice; listed as DI-1589, 50 mg/kg) of the same compound?
Answer: The RelGonads was 0.885 and 0.901 and 0.898 and 0.704.

Question: What about the “Relative KidneyL” value (mice; listed as DI-1589, 50 mg/kg) of the same compound?
Answer: The value was 0.743 and 0.655 and 0.726.

Question: What about the RelativeHeart (mice; listed as DI-1589, 50 mg/kg) of the same compound?
Answer: The RelativeHeart was 0.474 and 0.440 and 0.481 and 0.445.

Question: And the RelativeKidneyR (mice; listed as DI-1589, 50 mg/kg)?
Answer: The RelativeKidneyR was 0.794 and 0.825 and 0.731 and 0.755.

Question: What about the RelativeLiver (mice; listed as DI-1589, 50 mg/kg) of the same compound?
Answer: Its RelativeLiver is 6.087 and 6.111 and 6.523 and 6.131.

Question: And the RelativeSpleen (mice; listed as DI-1589, 50 mg/kg)?
Answer: Its RelativeSpleen is 0.249 and 0.294 and 0.235 and 0.339.

Question: What about the RelativeThymus (mice; listed as DI-1589, 50 mg/kg) of the same compound?
Answer: The RelativeThymus was 0.348 and 0.127 and 0.110.

Question: And the RelAdrenGl (mice; listed as DI-1589, 50 mg/kg)?
Answer: Its RelAdrenGl is 0.020 and 0.019 and 0.037.

Question: And the RelBrain (mice; listed as DI-1589, 50 mg/kg)?
Answer: The RelBrain was 1.838 and 1.786 and 1.686.

Question: What about the RelEpid (mice; listed as DI-1589, 50 mg/kg) of the same compound?
Answer: Its RelEpid is 0.360 and 0.302 and 0.326 and 0.307.

Question: And the ALT (mice; [2])?
Answer: Its ALT is 28.2 ± 4.1 U/L.

Question: And the AST (mice; [2])?
Answer: Its AST is 50.8 ± 10.4 U/L.

Question: What about the HO-1 protein level (HO-1 protein) of the same compound?
Answer: The HO-1 protein level was “dose dependently upregulates”.
